In data set [1] the test system is mouse femoral marrow CFU-GM. Particulars: in vivo.
Source text: Mouse spleen conditioned-medium, at a concentration of 2%, was used in this assay. The medium and semi-solid culture mix were procured from Stem Cell Technologies in Vancouver, BC.
For data set [2], the system named is human stromal cells. The experiment in a line: Comparative: PDGF-BB-induced proliferation in human stromal cells. The format is cell-based. The settings on record: 50 ng/ml PDGF-BB; drugs added one hour prior (FIG. 23). The protocol:
Human stromal cells were starved in serum-free media for 24 hours and then stimulated with 50 ng/ml PDGF-BB. The drugs were added at various concentrations one hour prior to PDGF stimulation. Tritiated thymidine was added at the time of PDGF stimulation and pulsed for 24 hours. Cells were harvested and cell proliferation measured (FIG. 23). Background counts (i.e., starved cells) were about 10% of control levels.

In data set [3] the test system is human stromal cells. Briefly: PDGF-induced proliferation in human stromal cells. The format is cell-based. The settings on record: 50 ng/ml PDGF; compound added one hour prior; various concentrations (FIG. 1). As for the experimental part: 3506 on PDGF-induced proliferation in human stromal cells. Procedurally, human stromal cells were starved in serum-free media for 24 hours and then stimulated with 50 ng/ml PDGF. Compound no. 3506 was added at various concentrations one hour prior to PDGF stimulation and pulsed for 24 hours. Cells were harvested and cell proliferation measured having background counts (i.e., starved cells) at about 10% of control levels.

For the next data set, the system named is thymocytes. Briefly: thymocyte proliferation co-stimulated with Con A and IL-2. The format is cell-based, mouse (Balb/C). The settings on record: co-stimulated with Con A and IL-2, various concentrations. As for the experimental part:
3506, 3556, 3563, 3576, 3581, 3582 and 3584 on thymocyte proliferation and activation, co-stimulated with Concanavalin A (Con A) and interleukin-2 (IL-2), at various concentrations of the compounds (IC50). Con A and IL-2 together stimulate T cell proliferation and differentiation.
Thymuses, obtained from normal, female Balb/C mice, were dissociated and plated into 96-well plates at a density of 2×10^5 cells/well. Con A ([…]) and IL-2 (15 U/ml) were added to the wells. The cells were incubated for 4 days at 37° C. On day 4, the cells were pulsed with tritiated thymidine and incubated for an additional 4 hours. Incorporated tritiated thymidine of harvested cells was determined in a liquid scintillation counter. Results plotted as dose concentration versus proliferation for inventive compounds nos. 3506, 3556, 3563, 3576, 3581, 3582 and 3584 are shown in FIGS. 6 (3506), 7 (3556), 8 (3563), 9 (3576), 10 (3581 and 3582) and 11 (3584). Respective concentrations of inventive compound (shown in the figures) were added two hours prior to Con A and IL-2 activation. Background counts were less than 200 cpm.

Data set [4] deals with mouse bone marrow cells (CFU-GM). The experiment in a line: CFU-GM colony assay, effect on normal mouse bone marrow cells. Type of data set: cell-based. The settings on record: for cytotoxicity to normal mouse marrow cells: 8 h incubation, 7 days colony growth; for effect on normal cells compared to known chemotherapeutic compounds: in vitro, vs vinblastine, 5-fluorouracil, doxorubicin or cisplatinum. From the text: This example illustrates a method for examining an effect of the inventive compounds, showing potential as cancer therapies, on normal cells. This assay has been used clinically to evaluate recovery of patients' marrow following chemotherapy or radiation. In this specific example, inventive compounds nos.
Mouse bone marrow cells are useful in this assay because they produce colonies, which can later be counted, in culture. The colonies are called colony forming unit-granulocyte macrophage (CFU-GM) and depend on a source of colony stimulating factor for growth.
Cells were cultured with inventive compounds nos. 3563, 3576, 3581, 3584 and 4500, to comparatively evaluate an effect on normal cells of inventive compounds identified as potential cancer therapies. Procedurally, cells were incubated for 8 hours with various concentrations of these compounds. A negative control without any compound was simultaneously prepared. After 8 hours, the incubated cells were washed thoroughly and a consistent number were subsequently plated to obtain CFU-GM. Colonies were permitted to grow for 7 days at 37° C., in 5% CO2. After 7 days of growth, colony growths were counted microscopically. Data obtained in this assay for inventive compounds nos. 3563, 3576, 3581, 3584 and 4500 are plotted in FIGS. 12, 13, 14, 15 and 16, respectively. The data in the figures are shown to compare the colonies counted for cells incubated with varying concentrations of the compounds tested against the negative control, without compound. At concentrations ranging from 5 to 30 μM, more colonies existed for cells incubated with the inventive potential cancer compound than with known, chemotherapeutic agents. Compound no.

For data set [5], the system named is polymorphonuclear leukocytes. The settings on record: U.S. Pat. No. 4,636,507; cited from earlier work.
Another data set relates to certain cytokines. Particulars: U.S. Pat. Nos. 4,965,271 and 5,096,906; cited from earlier work.
Data set [6] concerns tumor necrosis factor (TNF). The settings on record: PTX recipients; cited from earlier work.
Another data set has as its system PAPH. The settings on record: specific activation pathway that does not involve PI; cited from earlier work.
A further data set has as its system Balb/3T3 cells. The experiment in a line: Balb/3T3 viability (cytotoxicity) assay with BCECF. Type of data set: cell-based. The settings on record: BCECF fluorescence; concentrations shown in FIGS. 1, 2 and 4; control value of 100%. The protocol:
In conjunction with the Balb/3T3 proliferation assay, a related viability assay was conducted to assess the cytotoxicity of compounds which inhibit proliferation in this system. The assay protocol was identical to that performed above except that tritiated thymidine was not added after the 24 hour incubation with PDGF. In this cytotoxicity assay, after incubating the cells, a 10 μM solution of BCECF was added and the cells were incubated for 30 minutes at 37° C. Following this incubation, BCECF was replaced with PBS and the plate read for fluorescence in a Millipore cytofluorometer. Data obtained was plotted as a percent of control versus concentration of inventive compound tested. FIGS. 3 and 5 represent the results of this viability assay, for compounds nos. 3556 and 4500, respectively.

The subject of another data set is 293-EBNA cells. Briefly: 293-EBNA cell viability (alamarBlue). Type of data set: cell-based. The protocol: The effect of respective inventive compounds on the viability of 293-EBNA cells was measured by a colorimetric assay that uses the alamarBlue® dye (purchased from Alamar Biosciences, Inc.) to report cell proliferation, viability and cytotoxicity. This dye is an oxidation-reduction (Redox) indicator that changes color in response to chemical reduction of growth medium resulting from cell growth. The general procedure involves adding alamar-Blue® in an amount equal to 10% of the culture volume, returning the culture to incubator for four hours, and measuring the absorbance at 570 nm after subtraction of background absorbance at 600 nm.

The subject of a further data set is JR-CSF strain of HIV-1. Briefly: JR-CSF HIV-1 infection of human peripheral blood lymphocytes (p24 antigen ELISA). The format is cell-based, HIV-1 (in human PBL). Particulars: 10 and 20 μM. As for the experimental part:
In a protocol for infecting a PBL cell suspension, JR-CSF HIV-1 was clarified at low-speed centrifugation (2,000-3,000 rpm) or filtration and stored in aliquots at -70° C. To maintain consistent titers, HIV-1 aliquots were not subjected to repeated freezing and thawing and any remainder was discarded. Virus aliquots were thawed at room temperature or under cold running water for more rapid thawing and maintained in ice after thawing. Just prior to infection of PBL cells, the supernatant or dilution were warmed to room temperature.
Human PBL cells taken from a suitable donor were centrifuged down at 1000 rpm for 5-10 minutes at room temperature. While cells were spinning, the virus inoculum was prepared in medium by adding 10 μg/ml Polybrene®. The centrifuged cells were resuspended in virus inoculum, using 1 ml of virus inoculum per 10^7 cells. A more efficient HIV-1 infection is obtained with smaller amounts of inoculum. The cells were incubated at 37° C. in the presence of virus inoculum for 2 hours, shaking the suspension every half hour. After 2 hours, the suspension was spun down, the virus inoculum removed and the cells were washed with 10 ml of fresh media.
The infected cells, inoculated with virus at a concentration of 10 ng virus/10^6 PBL, were washed and resuspended in growth medium ([…] RPMI/20 % FBS/10 units/ml IL-2). […]
In general terms: In an ELISA, binding on a coated surface is turned into a signal by an enzyme label.

SMILES strings stand for the structures.

Take `O=c1[nH]cc(F)c(=O)[nH]1` [5-fluorouracil]: the “CFU-GM detectable in mouse femoral marrow” value in data set [1] is given as “no CFU-GM were detectable”.
With `CC(=O)CCCCCCn1c(=O)c2c(ncn2C)n(C)c1=O` [A, 1-(7-oxooctyl)-3,7-dimethylxanthine], the “concentrations at which activity on PDGF-induced proliferation is apparent” value with human stromal cells [2] is given as “millimolar concentrations”.
The same measure, in the same setting: with `CC(CCCCn1c(=O)c2c(ncn2C)n(C)c1=O)N(C)C` (centres unmarked) [B, 1-(5-dimethylaminohexyl)-3,7-dimethylxanthine] the entry was “millimolar concentrations”.
For the compound `CCCCCCCCCCCNCCCCCCn1c(=O)c2c(ncn2C)n(C)c1=O` [Compound no. 3506], in the data set on human stromal cells [3], the “inhibition of PDGF-induced proliferation” value is “inhibition of PDGF-induced proliferation”. In the data set on thymocytes, the “effect on thymocyte proliferation and activation” value was “inhibitive effect”.
As for `CCCCCCCCCCCCNCCCCCCCCCCCn1c(=O)c2c(ncn2C)n(C)c1=O` [Compound no. 3563], in data set [4], the “cytotoxicity to normal mouse marrow cells” value was “most cytotoxic to proliferative potential of the mouse marrow cells” and the “effect on normal cells compared to known chemotherapeutic compounds” value is “less deleterious to normal cells”. Besides, in the data set on thymocytes, the “effect on thymocyte proliferation and activation” value was “inhibitive effect”.
On to `CC(O)CCCCn1c(=O)c2c(ncn2C)n(C)c1=O` (centres unmarked) [M1, 1-(5-hydroxyhexyl)-3,7-dimethylxanthine], for which, in data set [5], the “chemotaxis in polymorphonuclear leukocytes responding to chemotaxis stimulation” value is reported as “enhance chemotaxis”.
As for `CC(=O)CCCCn1c(=O)c2c(ncn2C)n(C)c1=O` [PTX, 1-(5-oxohexyl)-3,7-dimethylxanthine], in the data set on certain cytokines, the “effect on activity of certain cytokines to affect chemotaxis” value is “inhibit activity of certain cytokines”. Also, the “TNF levels in normal volunteers” value in data set [6] is recorded as “TNF levels were higher”. The “chemotaxis in polymorphonuclear leukocytes responding to chemotaxis stimulation” value in data set [5] is given as “enhance chemotaxis”. The “effect on PAPH” value in the data set with PAPH is “blocks PAPH”.
For `CCCCCCCCNCCCCCCCCCCCn1c(=O)c2c(ncn2C)n(C)c1=O` [compound 3556, 1-(11-octylaminoundecyl)-3,7-dimethylxanthine], the “cytotoxicity at the concentrations that inhibit proliferation” value with Balb/3T3 cells is listed as “not cytotoxic to any cells”. The “effect on thymocyte proliferation and activation” value in the data set on thymocytes was “inhibitive effect”. In addition, the “concentration at which cytotoxicity becomes significant” value with 293-EBNA cells was greater than 10 µM. Moreover, the “effect on HIV-1 viral infection” value in the data set with JR-CSF strain of HIV-1 is “virtually eliminated viral infection”.
Regarding `CCCCCCCCCCCCN(C)CCCCCCCCCCCn1c(=O)c2c(ncn2C)n(C)c1=O` [compound 3576], the “effect on normal cells compared to known chemotherapeutic compounds” value in data set [4] was “less deleterious to normal cells”. Besides, in the data set with thymocytes, the “effect on thymocyte proliferation and activation” value is on record as “inhibitive effect”.
The corresponding values for `CCCCCCCCCCNCCCCCCCCCCCn1c(=O)c2c(ncn2C)n(C)c1=O` [compound 3581] are “less deleterious to normal cells” and “inhibitive effect”.
Take `CCCCCCCCCCCCCCNCCCCCCCCCCCn1c(=O)c2c(ncn2C)n(C)c1=O` [compound 3582]: in the data set on thymocytes, the “effect on thymocyte proliferation and activation” value was “inhibitive effect”.
For `CCCCCCCCCCCCCCCCNCCCCCCCCCCCn1c(=O)c2c(ncn2C)n(C)c1=O` [compound 3584], the “effect on normal cells compared to known chemotherapeutic compounds” value in [4] was “less deleterious to normal cells”. Moreover, the “effect on thymocyte proliferation and activation” value in the data set with thymocytes is listed as “inhibitive effect”.
`CCCCCCN(CCCCCC)CCCCCCCCCCCn1c(=O)c2c(ncn2C)n(C)c1=O` [compound 3590]: the “concentration at which there is still little cytotoxicity” value with 293-EBNA cells is greater than 32 µM.
On to `COc1cc(CNCCCCCCCCCCCn2c(=O)c3c(ncn3C)n(C)c2=O)cc(OC)c1OC` [compound 3593], for which, in the data set with 293-EBNA cells, the “concentration at which there is still little cytotoxicity” value was greater than 32 µM.
`CCCCCCN(C)CCCCCCCCCCCn1c(=O)c2c(ncn2C)n(C)c1=O` [compound 4500]: the “cytotoxicity at the concentrations that inhibit proliferation” value in the data set with Balb/3T3 cells is “not cytotoxic to any cells”. In data set [4], the “cytotoxicity to normal mouse marrow cells” value is reported as “virtually no toxicity at elevated concentrations for the normal mouse marrow cells”. Besides, in the data set with 293-EBNA cells, the “concentration at which there is still little cytotoxicity” value is greater than 32 µM.

The values above are taken from patent US5807861A, “Amine substituted xanthinyl compounds” (Cell Therapeutics, Inc., priority 1995, dated 1998).
